From patent US20090221647A1, “N-(2-THIAZOLYL)-AMIDE DERIVATIVES AS GSK-3 INHIBITORS” (NOSCIRA, S.A., priority 2006, published 2009)

Key:
SH-SY5Y cells = test: Cell survival by LDH release in SH-SY5Y cells; assay type: cell-based
Experimental: In addition to tau phosphorylation assays, quantification of cell death due to potential toxicity of compounds 1 and 3 described above is made by measuring LDH release (Roche, Cat 1 644 793). For the quantitative determination of cell survival, aliquots of the cell lysate are incubated with an equal volume of reaction mixture at room temperature for 20-30 min. The measure of absorbance is made in a microtiter plate reader with 490-492 nm filter (Cultek, Anthos 2010).
For compounds 1 and 3, the cell survival was measured at 24 hours treatment (see Table 2), and for compound 2 was measured at 18 hours treatment (see Table 3), in SH-SY5Y cells. It is generally considered that a compound is considered toxic if less than 80% of the cells survive after treatment with a compound.

[1] = target: T1, Recombinant human glycogen synthase kinase 3β (Homo sapiens, UniProt P49841); test: GSK-3β inhibition (radiometric 33P-ATP, GS-2 peptide substrate); assay type: biochemical; details: remaining GSK-3 activity
T1 construct: purchased Upstate 14-306
Experimental: This assay is based on the protocol detailed by Upstate Cat. 14-306, making some slight modifications.
Recombinant human glycogen synthase kinase 3β is assayed in MOPS 11 mM pH7.4, EDTA 0.2 mM, EGTA 1.25 mM, MgCl2 26.25 mM and sodium orthovanadate 0.25 mM in the presence of 62.5 μM of Phospho-Glycogen Synthase Peptide-2 (GS-2) (TOCRIS, Cat. 1352), 0.5 μCi γ-^33P-ATP and unlabelled ATP (Sigma, A-9187) at a final concentration of 12.5 μM. After incubation for 30 minutes at 30° C., aliquots are spotted onto P81 phosphocellulose papers. Filters are washed four times for at least 10 minutes each with 1% phosphoric acid and counted with scintillation cocktail in a scintillation counter (PerkinElmer, Microbeta 1450). The activity of GSK-3 is tested at concentrations of 25 and 50 μM, in the presence of the compound synthesized according to example 1 and in the presence of another 6 compounds of formula (I). The results obtained are indicated in Table I (see below), in the form of percentage of GSK-3 activity.

[2] = tested on: phosphorylated human Tau [pS396] in SHSY5Y cells; test: Inhibition of tau phosphorylation in SHSY5Y cells (Tau [pS396] sandwich ELISA); assay type: cell-based; set-up: key: “NEG” means no tau phosphorylation inhibition was detected at the referred concentration of compound (I); “POS” means that at the referred concentration tau phosphorylation inhibition was detected; details: 18 h
Experimental: Human neuroblastoma SHSY5Y cells were seeded in the presence of Minimum Essential Medium/Nutrient Mixture F-12. One day later, cells are treated with samples for 18 h at 37° C. After treatment, cultures are washed with phosphate-buffered saline and lysed for 30 min at 4° C. in extraction buffer (10 mM Tris-HCl, pH 7.4, 100 mM NaCl, 1 mM EDTA, 2 mM Na3VO4, 1% Triton X-100, 10% glycerol, 0.1% SDS, 0.5% Sodium deoxycholate, 1 mM PMSF and a protease inhibitor cocktail (Roche, Cat 1 697 498)).
The quantitative determination of phosphorylated human Tau is made taking aliquots of the cell lysate and using a phosphorylation-specific antibody against Tau [pS396] in a sandwich ELISA (Biosource, Cat KHB7031). Tau phosphorylation is estimated by measuring the absorbance at 450 nm in a microtiter plate reader (Cultek, Anthos 2010).
The effect of the synthesized compound according to example 1 and that of another 6 compounds of formula (I) is determined at different final concentrations, namely 50, 100 and 200 μM. Not all the compounds of formula (I) were tested at all the concentrations. The results are indicated in Table 1 (see below) as “NEG” and “POS”, respectively meaning “negative” and “positive”; “NEG” means no tau phosphorylation inhibition was detected at the referred concentration of compound (I); “POS” means that at the referred concentration tau phosphorylation inhibition was detected.

T1 sequence (P49841 whole entry): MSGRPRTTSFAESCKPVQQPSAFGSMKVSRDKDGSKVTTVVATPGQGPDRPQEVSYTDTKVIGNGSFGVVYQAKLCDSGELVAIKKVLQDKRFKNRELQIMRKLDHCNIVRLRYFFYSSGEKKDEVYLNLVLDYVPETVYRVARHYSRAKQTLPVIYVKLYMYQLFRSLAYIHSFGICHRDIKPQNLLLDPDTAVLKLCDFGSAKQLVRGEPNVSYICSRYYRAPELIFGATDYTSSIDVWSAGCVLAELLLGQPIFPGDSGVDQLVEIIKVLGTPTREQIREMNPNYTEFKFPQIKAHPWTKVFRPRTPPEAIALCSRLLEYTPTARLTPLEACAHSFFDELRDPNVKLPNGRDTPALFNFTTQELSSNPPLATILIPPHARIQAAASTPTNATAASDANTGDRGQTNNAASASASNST

Compound	% of cell viability (SH-SY5Y cells; 50 μM, 24 hours treatment) [%]	% of cell viability (SH-SY5Y cells; 100 μM, 24 hours treatment) [%]	% GSK-3 Activity ([1]; 25 μM compound) [%]	% GSK-3 Activity ([1]; 50 μM compound) [%]	Tau phosphorylation inhibition in cells ([2]; 50 μM compound)	Tau phosphorylation inhibition in cells ([2]; 100 μM compound)	% of cell viability (SH-SY5Y cells; 50 μM, 18 hours treatment) [%]	% of cell viability (SH-SY5Y cells; 100 μM, 18 hours treatment) [%]
O=C(Cc1cccnc1)Nc1ncc([N+](=O)[O-])s1 [Compound 1, N-(5-Nitro-thiazol-2-yl)-2-pyridin-3-yl-acetamide]	94.1 ± 1.8	86.5 ± 4.7	5.21	2.78	POS	POS	–	–
O=C(CCc1cccnc1)Nc1ncc([N+](=O)[O-])s1 [Compound 2]	–	–	8.3	5.36	POS	POS	95.7 ± 4.2	93.7 ± 7.1
O=C(Cc1ccccn1)Nc1ncc([N+](=O)[O-])s1 [Compound 3]	87 ± 6.0	85.4 ± 2.7	9.49	4.1	NEG	POS	–	–
O=C(Cc1cccnc1)Nc1ncc(Cl)s1 [Compound 4]	–	–	5.6	13.8	NEG	POS	–	–
O=C(Nc1ncc([N+](=O)[O-])s1)c1ccccn1 [Compound 5]	–	–	76.72	43.78	–	–	–	–
O=C(Cc1cccnc1)Nc1nccs1 [Compound 6]	–	–	22.29	50.90	–	–	–	–
O=C(Cc1ccccc1)Nc1ncc([N+](=O)[O-])s1 [Compound 7]	–	–	13.73	8.05	POS	POS	–	–
